In the supplement of paper PMC10307832:

Experiments:
Assay in all cases: relative viability (nuclei count vs DMSO), 5 days (fraction); higher = more cells survive
TPCA-1 + Lapatinib = compound: C1=CC(=CC=C1C2=CC(=C(S2)NC(=O)N)C(=O)N)F [TPCA-1] + CS(=O)(=O)CCNCc1ccc(-c2ccc3ncnc(Nc4ccc(OCc5cccc(F)c5)c(Cl)c4)c3c2)o1 [Lapatinib] (partner 2 µM)
Method in brief: (§1)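 Lung cancer cell lines were seeded in 1536-well plates and dosed by pin tool the next day, with either a single drug or a fixed anchor-drug dose combined with five library-drug doses (not always all listed) spaced in √10 steps. Five days later, one step fixed the cells and stained their nuclei (final 0.05% Triton X-100, 1% formaldehyde, 1 ug/ml Hoechst), and nuclei were counted on 4× images. Relative viability is the nuclei count in treated wells divided by the count in vehicle wells, and each value is the median of duplicate plates.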

[1] = compound: C1/C(=C\C2=CC=CS2)/C(=O)/C(=C/C3=CC=CS3)/C1 + CS(=O)(=O)CCNCc1ccc(-c2ccc3ncnc(Nc4ccc(OCc5cccc(F)c5)c(Cl)c4)c3c2)o1 [Lapatinib] (partner 2 µM)
Method in brief: as §1

TPCA-1 + Dasatinib = compound: C1=CC(=CC=C1C2=CC(=C(S2)NC(=O)N)C(=O)N)F [TPCA-1] + Cc1nc(Nc2ncc(C(=O)Nc3c(C)cccc3Cl)s2)cc(N2CCN(CCO)CC2)n1 [Dasatinib] (partner 0.075 µM)
Method in brief: as §1

TPCA-1 + Trametinib = compound: C1=CC(=CC=C1C2=CC(=C(S2)NC(=O)N)C(=O)N)F [TPCA-1] + CC(=O)Nc1cccc(-n2c(=O)n(C3CC3)c(=O)c3c(Nc4ccc(I)cc4F)n(C)c(=O)c(C)c32)c1 [Trametinib] (partner 0.02 µM)
Method in brief: as §1

Cell Line	relative viability (TPCA-1 + Lapatinib; first compound 0.04 µM)	relative viability (TPCA-1 + Lapatinib; first compound 0.1265 µM)	relative viability (TPCA-1 + Lapatinib; first compound 0.4 µM)	relative viability (TPCA-1 + Lapatinib; first compound 1.265 µM)	relative viability (TPCA-1 + Lapatinib; first compound 4 µM)	relative viability ([1]; first compound 0.2 µM)	relative viability ([1]; first compound 0.6325 µM)	relative viability ([1]; first compound 2 µM)	relative viability ([1]; first compound 6.325 µM)	relative viability ([1]; first compound 20 µM)	relative viability (TPCA-1 + Dasatinib; first compound 0.04 µM)	relative viability (TPCA-1 + Dasatinib; first compound 0.1265 µM)	relative viability (TPCA-1 + Dasatinib; first compound 0.4 µM)	relative viability (TPCA-1 + Dasatinib; first compound 1.265 µM)	relative viability (TPCA-1 + Dasatinib; first compound 4 µM)	relative viability (TPCA-1 + Trametinib; first compound 0.04 µM)	relative viability (TPCA-1 + Trametinib; first compound 0.1265 µM)	relative viability (TPCA-1 + Trametinib; first compound 0.4 µM)	relative viability (TPCA-1 + Trametinib; first compound 1.265 µM)	relative viability (TPCA-1 + Trametinib; first compound 4 µM)
NCI-H322M	0.646	0.612	0.589	0.65	0.492	0.619	0.648	0.657	0.568	0.582	0.267	0.261	0.244	0.281	0.238	0.499	0.455	0.51	0.449	0.494
LXF-289	0.914	0.927	0.807	0.831	0.726	0.926	0.915	0.886	0.792	0.91	0.24	0.225	0.267	0.134	0.104	0.7	0.629	0.635	0.653	0.565
PC-3 [JPC-3]	0.435	0.487	0.481	0.454	0.434	0.445	0.406	0.512	0.461	0.446	0.959	0.99	1.04	0.943	0.999	0.755	0.692	0.73	0.757	0.642
CAL-12T	0.638	0.582	0.708	0.38	0.389	0.774	0.827	0.74	0.604	0.606	0.361	0.486	0.571	0.304	0.154	0.326	0.331	0.345	0.358	0.254
COR-L 105	0.379	0.368	0.384	0.272	0.268	0.355	0.37	0.38	0.304	0.361	0.307	0.361	0.345	0.225	0.204	0.542	0.321	0.422	0.505	0.407
NCI-H2347	1.07	0.739	0.963	0.78	0.896	1.03	0.977	0.901	0.898	0.915	0.296	0.277	0.26	0.258	0.262	0.26	0.316	0.276	0.266	0.252
NCI-H2126	0.827	0.736	0.808	0.749	0.669	0.774	0.751	0.787	0.691	0.745	0.617	0.531	0.602	0.549	0.437	0.534	0.528	0.58	0.538	0.555
